According to the Kinase Knowledgebase extract (Sharma et al. 2016):

Target: EGFR (UniProt P00533)
Test: Inhibition of EGFR Kinase Activity

EGFR, sequence (P00533 whole entry, looked up): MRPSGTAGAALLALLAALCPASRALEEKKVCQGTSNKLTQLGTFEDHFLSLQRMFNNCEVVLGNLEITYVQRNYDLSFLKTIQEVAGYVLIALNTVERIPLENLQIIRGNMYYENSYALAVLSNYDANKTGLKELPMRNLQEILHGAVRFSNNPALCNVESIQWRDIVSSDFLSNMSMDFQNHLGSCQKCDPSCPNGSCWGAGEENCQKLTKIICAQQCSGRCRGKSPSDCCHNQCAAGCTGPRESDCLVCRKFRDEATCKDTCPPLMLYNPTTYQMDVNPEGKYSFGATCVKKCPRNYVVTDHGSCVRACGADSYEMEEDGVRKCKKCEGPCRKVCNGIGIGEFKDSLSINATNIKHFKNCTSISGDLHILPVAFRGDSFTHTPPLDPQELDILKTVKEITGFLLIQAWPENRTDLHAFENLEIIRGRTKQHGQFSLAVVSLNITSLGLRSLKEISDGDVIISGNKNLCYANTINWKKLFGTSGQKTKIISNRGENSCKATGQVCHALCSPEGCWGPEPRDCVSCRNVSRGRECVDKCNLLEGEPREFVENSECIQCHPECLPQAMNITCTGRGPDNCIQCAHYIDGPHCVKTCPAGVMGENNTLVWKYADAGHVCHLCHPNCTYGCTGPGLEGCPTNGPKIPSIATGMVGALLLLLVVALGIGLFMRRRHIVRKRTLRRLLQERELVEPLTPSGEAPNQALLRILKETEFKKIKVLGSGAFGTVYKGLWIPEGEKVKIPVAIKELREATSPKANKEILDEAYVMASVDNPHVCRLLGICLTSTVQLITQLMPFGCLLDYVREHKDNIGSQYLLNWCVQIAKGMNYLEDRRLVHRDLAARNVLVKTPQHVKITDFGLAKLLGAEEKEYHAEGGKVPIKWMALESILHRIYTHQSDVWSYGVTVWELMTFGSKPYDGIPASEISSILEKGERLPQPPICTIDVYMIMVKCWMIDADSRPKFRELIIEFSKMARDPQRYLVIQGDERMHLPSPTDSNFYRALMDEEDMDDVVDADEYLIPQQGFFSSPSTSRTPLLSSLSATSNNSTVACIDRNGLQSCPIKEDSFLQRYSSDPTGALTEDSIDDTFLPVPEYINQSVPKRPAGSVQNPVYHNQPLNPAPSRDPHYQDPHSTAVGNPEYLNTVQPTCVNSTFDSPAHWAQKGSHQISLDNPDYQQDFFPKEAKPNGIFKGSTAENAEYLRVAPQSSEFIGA

| SMILES | IC50 |
| --- | --- |
| C=CC(=O)Nc1cccc(Nc2ncnc(N(C)c3ccc4c(cnn4Cc4ccccc4)c3)n2)c1 | < 50 µM |
| C=CC(=O)Nc1cccc(Nc2ncnc(N(CC)c3ccc(OCCOC)c(OC)c3)n2)c1 | < 50 µM |
| CC#CC(=O)Nc1cccc(Nc2ncnc(Nc3ccc(OCCOC)c(OC)c3)n2)c1 | < 50 µM |
| C=CC(=O)Nc1cccc(Nc2ncnc(NN3CCCc4cc(C)ccc43)n2)c1 | < 50 µM |
| C#CCC(=O)Nc1cccc(Nc2ncnc(NN3CCCc4ccc(C(F)(F)F)cc43)n2)c1 | < 50 µM |
| C=CC(=O)Nc1ccc(Nc2ncnc(N(C)n3c(=O)n(C(=O)C(C)(C)C)c4ccccc43)n2)cc1 | < 50 µM |
| C=CCN(c1ncnc(Nc2cccc(NC(=O)C=C)c2)n1)C1CC1c1ccccc1 (centres undefined) | < 50 µM |
| C=CCN(c1cccc(C(N)=O)c1)c1ncnc(Nc2cccc(NC(=O)C=C)c2)n1 | < 50 µM |
| C=CC(=O)Nc1cc(Nc2ncnc(Nc3ccc4c(ccn4Cc4ccccc4)c3)n2)ccc1OCCCN1CCOCC1 | < 50 µM |
| C=CCN(c1ncnc(Nc2cccc(NC(=O)C=C)c2)n1)c1cccc2ccccc12 | < 50 µM |
| C=CCN(c1ncnc(Nc2ccc(NC(=O)C=C)cc2)n1)n1c(=O)[nH]c2ccccc21 | < 50 µM |
| CC#CC(=O)Nc1cc(Nc2ncnc(N(C)c3cccc(Cl)c3)n2)ccc1OCCCC1CCN(C)CC1 | < 50 µM |
| CC#CC(=O)Nc1cc(Nc2ncnc(Nc3ccc4c(cnn4Cc4ccccc4)c3)n2)ccc1OCCCN1CCOCC1 | < 50 µM |
| C=CC(=O)Nc1ccc(Nc2ncnc(N(CC)n3c(=O)[nH]c4ccccc43)n2)cc1 | < 50 µM |
| CCN(c1ccc2NN(=Cc2c1)Cc3ccccn3)c4ncnc(Nc5cccc(NC(=O)C#CC)c5)n4 | < 50 µM |
| C=CCN(c1cccc(Cl)c1)c1ncnc(Nc2ccc(NC(=O)C=C)cc2)n1 | < 50 µM |
| CC#CC(=O)Nc1cccc(Nc2ncnc(N(CC)c3cccc(S(=O)(=O)c4ccc([N+](=O)[O-])cc4)c3)n2)c1 | < 50 µM |
| C=CC(=O)Nc1cccc(Nc2ncnc(Nc3ccc(S(=O)(=O)c4ccccc4)cc3)n2)c1 | < 50 µM |
| C=CC(=O)Nc1ccc(Nc2ncnc(N(CC)C3CC3c3ccccc3)n2)cc1 (centres undefined) | < 50 µM |
| CN(c1ccc2NN(=Cc2c1)Cc3ccccn3)c4ncnc(Nc5ccc(NC(=O)C=C)cc5)n4 | < 50 µM |

| SMILES | IC50 |
| --- | --- |
| CC#CC(=O)Nc1cccc(Nc2ncnc(N(CC)c3ccc(OC)c(OC)c3)n2)c1 | < 50 µM |
| CC#CC(=O)Nc1cccc(Nc2ncnc(Nc3ccc(OCC)c(OCC)c3)n2)c1 | < 50 µM |
| C=CCN(c1ccc(OC)c(OC)c1)c1ncnc(Nc2cccc(NC(=O)C=C)c2)n1 | < 50 µM |
| C=C/C=C/C(=O)Nc1cccc(Nc2ncnc(Nc3ccc4c(ccn4Cc4ccccc4)c3)n2)c1 | < 50 µM |
| C=CC(=O)Nc1ccc(Nc2ncnc(Nc3cccc4ccccc34)n2)cc1 | < 50 µM |
| C=CC(=O)Nc1cc(Nc2ncnc(N(C)c3ccc4c(cnn4Cc4ccccc4)c3)n2)ccc1OCCCC1CCN(C)CC1 | < 50 µM |
| CC#CC(=O)Nc1cccc(Nc2ncnc(N(C)c3ccc(C(=O)OC)cc3)n2)c1 | < 50 µM |
| C=CC(=O)Nc1cccc(Nc2ncnc(Nc3ccc4c(cnn4Cc4cccc(F)c4)c3)n2)c1 | < 50 µM |
| C=CC(=O)Nc1ccc(Nc2ncnc(N(C)n3c(=O)[nH]c4ccccc43)n2)cc1 | < 50 µM |
| C=CCN(c1ccc(C(=O)OC)cc1)c1ncnc(Nc2cccc(NC(=O)C#CC)c2)n1 | < 50 µM |
| C=CC(=O)Nc1cccc(Nc2ncnc(Nc3ccc(F)c(Cl)c3)n2)c1 | < 50 µM |
| C=CC(=O)Nc1cccc(Nc2ncnc(N(CC)c3cc(Cl)cc4ccccc34)n2)c1 | < 50 µM |
| CC#CC(=O)Nc1cccc(Nc2ncnc(Nc3cc(Cl)ccc3C)n2)c1 | < 50 µM |
| C=CC(=O)Nc1cccc(Nc2ncnc(N(CC)c3ccc(OCC)c(OCC)c3)n2)c1 | < 50 µM |
| C=CCN(c1cccc(C)c1)c1ncnc(Nc2cccc(NC(=O)C=C)c2)n1 | < 50 µM |
| C=CC(=O)Nc1cccc(Nc2ncnc(N(C)c3cc(Cl)ccc3C)n2)c1 | < 50 µM |
| CC#CC(=O)Nc1cccc(Nc2ncnc(Nc3ccc4c(cnn4Cc4ccccc4)c3)n2)c1 | < 50 µM |
| C=CC(=O)Nc1ccc(Nc2ncnc(N(C)c3cccc(Cl)c3)n2)cc1 | < 50 µM |
| C=CC(=O)Nc1cccc(Nc2ncnc(Nc3ccc(OCc4cccc(F)c4)c(Cl)c3)n2)c1 | < 50 µM |
| C=CC(=O)Nc1cccc(Nc2ncnc(N(CC)c3ccc(C(=O)OC)cc3)n2)c1 | < 50 µM |

| SMILES | IC50 |
| --- | --- |
| C=CC(=O)Nc1cccc(Nc2ncnc(NN3CCCc4ccc(C(F)(F)F)cc43)n2)c1 | < 50 µM |
| C=CC(=O)Nc1ccc(Nc2ncnc(Nc3ccc(C(=O)OC)cc3)n2)cc1 | < 50 µM |
| C=CC(=O)Nc1cc(Nc2ncnc(Nc3ccc(OCc4ccccc4)c(Cl)c3)n2)ccc1OCCCC1CCN(C)CC1 | < 50 µM |
| C=CC(=O)Nc1ccc(Nc2ncnc(NN3CCCc4c(Cl)cccc43)n2)cc1 | < 50 µM |
| C=CC(=O)Nc1ccc(Nc2ncnc(Nn3c(=O)n(C(=O)C(C)(C)C)c4ccccc43)n2)cc1 | < 50 µM |
| C=CC(=O)Nc1cccc(Nc2ncnc(N(CC)c3cccc(S(=O)(=O)c4ccc([N+](=O)[O-])cc4)c3)n2)c1 | < 50 µM |
| C=CC(=O)Nc1cccc(Nc2ncnc(Nc3ccc(OC)c(OC)c3)n2)c1 | < 50 µM |
| C=CC(=O)Nc1ccc(Nc2ncnc(NN3CCCc4ccc(C(F)(F)F)cc43)n2)cc1 | < 50 µM |
| C=CC(=O)Nc1cccc(Nc2ncnc(N(CC)c3ccc(OC)c(OCCOC)c3)n2)c1 | < 50 µM |
| C=CC(=O)Nc1ccc(Nc2ncnc(N(CC)C3CC3c3ccc(Cl)cc3)n2)cc1 (centres undefined) | < 50 µM |
| CC#CC(=O)Nc1cccc(Nc2ncnc(N(C)c3ccc4c(cnn4Cc4ccccc4)c3)n2)c1 | < 50 µM |
| C#CCC(=O)Nc1cccc(Nc2ncnc(NN3CCCc4ccc(Cl)cc43)n2)c1 | < 50 µM |
| CC#CC(=O)Nc1cc(Nc2ncnc(N(C)c3ccc(OCc4ccccc4)c(Cl)c3)n2)ccc1OCCCC1CCN(C)CC1 | < 50 µM |
| CC#CC(=O)Nc1cc(Nc2ncnc(Nc3ccc4c(ccn4Cc4ccccc4)c3)n2)ccc1OCCCN1CCOCC1 | < 50 µM |
| C=CCN(c1ncnc(Nc2cccc(NC(=O)C#CC)c2)n1)c1cc(Cl)cc2ccccc12 | < 50 µM |
| C=CCN(c1cccc(S(=O)(=O)c2ccc([N+](=O)[O-])cc2)c1)c1ncnc(Nc2cccc(NC(=O)C#CC)c2)n1 | < 50 µM |
| C=CC(=O)Nc1ccc(Nc2ncnc(N(C)c3cccc(CC(=O)OC)c3)n2)cc1 | < 50 µM |
| C=CC(=O)Nc1ccc(Nc2ncnc(Nn3c(=O)[nH]c4ccccc43)n2)cc1 | < 50 µM |
| C=CC(=O)N(CCCN1CCOCC1)c1cccc(Nc2ncnc(N(C)c3cccc(Cl)c3)n2)c1 | < 50 µM |
| C=CC(=O)Nc1ccc(Nc2ncnc(N(C)c3cccc(C(N)=O)c3)n2)cc1 | < 50 µM |

The next lines start with the values.

| IC50 | SMILES |
| --- | --- |
| < 50 µM | C=CC(=O)Nc1cccc(Nc2ncnc(Nc3ccc(OCc4ccccc4Br)c(Cl)c3)n2)c1 |
| < 50 µM | C=CCN(c1cccc(CC(=O)OC)c1)c1ncnc(Nc2ccc(NC(=O)C=C)cc2)n1 |
| < 50 µM | CC#CC(=O)Nc1cc(Nc2ncnc(Nc3ccc4c(ccn4Cc4ccccc4)c3)n2)ccc1OCCCC1CCN(C)CC1 |
| < 50 µM | C=CCN(c1ccc(F)c(Cl)c1)c1ncnc(Nc2ccc(NC(=O)C=C)cc2)n1 |
| < 50 µM | C=CC(=O)Nc1cccc(Nc2ncnc(Nc3cc(Cl)ccc3C)n2)c1 |
| < 50 µM | C=CC(=O)Nc1cc(Nc2ncnc(NN3CCCc4ccc(Cl)cc43)n2)ccc1OCCCN1CCOCC1 |
| < 50 µM | CC#CC(=O)Nc1cccc(Nc2ncnc(NC3CC3c3ccc(Cl)cc3)n2)c1 (centres undefined) |
| < 50 µM | C#CCC(=O)Nc1cccc(Nc2ncnc(NN3CCCc4cc(Cl)ccc43)n2)c1 |
| < 50 µM | C=CCN(c1ccc(OCCC)c(OCCC)c1)c1ncnc(Nc2ccc(NC(=O)C=C)cc2)n1 |
| < 50 µM | C#Cc1cccc(Nc2ncnc(Nc3cccc(NC(=O)C=C)c3)n2)c1 |
| < 50 µM | C=CC(=O)N(CCCN1CCOCC1)c1cccc(Nc2ncnc(Nc3ccc4c(cnn4Cc4ccccc4)c3)n2)c1 |
| < 50 µM | CC#CC(=O)Nc1cccc(Nc2ncnc(N(C)c3ccc(OCCC)c(OCCC)c3)n2)c1 |
| < 50 µM | C=CC(=O)Nc1cccc(Nc2ncnc(N(C)c3cc(Cl)cc4ccccc34)n2)c1 |
| < 50 µM | C=CC(=O)Nc1cccc(Nc2ncnc(NN3CCCc4cc(Cl)ccc43)n2)c1 |
| < 50 µM | C=CC(=O)N(CCCN1CCOCC1)c1cccc(Nc2ncnc(Nc3cccc(Cl)c3)n2)c1 |
| < 50 µM | C#CCC(=O)Nc1cccc(Nc2ncnc(NN3CCCc4cc(C)ccc43)n2)c1 |
| < 50 µM | C=CC(=O)Nc1ccc(Nc2ncnc(N(CC)c3ccc(OCC)c(OCC)c3)n2)cc1 |

| IC50 | SMILES |
| --- | --- |
| < 50 µM | C=CC(=O)Nc1cccc(Nc2ncnc(N(CC)c3cc(OC)c(OC)c(OCCN4CCOCC4)c3)n2)c1 |
| < 50 µM | CCN(c1ccc2NN(=Cc2c1)Cc3ccccn3)c4ncnc(Nc5ccc(NC(=O)C=C)cc5)n4 |
| < 50 µM | C=CC(=O)Nc1cccc(Nc2ncnc(Nc3ccc(OCc4ccccc4)c(Cl)c3)n2)c1 |
| < 50 µM | C=CCN(c1ccc2c(cnn2Cc2ccccc2)c1)c1ncnc(Nc2cccc(NC(=O)C=C)c2)n1 |
| < 50 µM | C=CC(=O)Nc1cccc(Nc2ncnc(Nc3ccc(OCC)c(OCC)c3)n2)c1 |
| < 50 µM | CC#CC(=O)Nc1cc(Nc2ncnc(N(C)c3ccc4c(ccn4Cc4ccccc4)c3)n2)ccc1OCCCN1CCOCC1 |
| < 50 µM | C=CC(=O)Nc1ccc(Nc2ncnc(N(C)c3ccc(OCCC)c(OCCC)c3)n2)cc1 |
| < 50 µM | CC#CC(=O)Nc1cccc(Nc2ncnc(N(C)c3ccc(F)c(Cl)c3)n2)c1 |
| < 50 µM | CC#CC(=O)Nc1cccc(Nc2ncnc(N(CC)c3cccc(C)c3)n2)c1 |
| < 50 µM | CC#CC(=O)Nc1cc(Nc2ncnc(N(C)c3ccc4c(cnn4Cc4ccccc4)c3)n2)ccc1OCCCC1CCN(C)CC1 |
| < 50 µM | CC#CC(=O)Nc1cc(Nc2ncnc(N(C)c3ccc4c(cnn4Cc4ccccc4)c3)n2)ccc1OCCCN1CCOCC1 |
| < 50 µM | C=CC(=O)Nc1ccc(Nc2ncnc(N(C)c3ccc(OC)c(OC)c3)n2)cc1 |
| < 50 µM | C=CC(=O)N(OCCCC1CCN(C)CC1)c1cccc(Nc2ncnc(NN3CCCc4ccc(Cl)cc43)n2)c1 |
| < 50 µM | C=CC(=O)Nc1ccc(Nc2ncnc(N(CC)c3ccc(OCCO)cc3)n2)cc1 |
| < 50 µM | C=CC(=O)Nc1cccc(Nc2ncnc(N(C)c3ccc(F)c(Cl)c3)n2)c1 |
| < 50 µM | C=CC(=O)Nc1cccc(Nc2ncnc(Nc3ccc4c(cnn4Cc4ccccn4)c3)n2)c1 |
| < 50 µM | C=CC(=O)Nc1ccc(Nc2ncnc(N(C)c3cccc(S(=O)(=O)c4ccc([N+](=O)[O-])cc4)c3)n2)cc1 |
